Measurements from ChEMBL document CHEMBL3272144, “Application of the Free-Wilson technique to structurally related series of homologues. Quantitative structure-activity relationship studies of narcotic analgetics” (1977).

Species on record: Mus musculus
Assay: Analgesic activity in mouse by hot-plate method
Assay type: functional

Row | Compound | log(1/C)
1 | C[C@H]1C2Cc3ccc(O)cc3[C@@]1(C)CCN2C | 2.71
2 | CC[C@@]12CCN(C)C(Cc3ccc(O)cc31)[C@H]2C | 3.92
3 | C[C@H]1C2Cc3ccc(OC(=O)c4cccnc4)cc3[C@@]1(C)CCN2CCc1ccccc1 | 3.68
4 | COc1ccc2c(c1)[C@@]1(C)CCN(CCc3ccccc3)C(C2)[C@@H]1C | 2.66
5 | COc1ccc2c(c1)[C@@]1(c3ccccc3)CCN(C)C(C2)[C@H]1C | 2.14
6 | COc1ccc2c(c1)[C@@]1(C)CCN(C)C(C2)[C@@H]1C | 1.87
7 | CC(C)=CCN1CC[C@]2(C)c3cc(O)ccc3CC1[C@H]2C | 1.7
8 | CC(C)=CCN1CC[C@]2(C)c3cc(O)ccc3CC1[C@@H]2C | 1.53
9 | COc1ccc2c(c1)[C@@]1(C)CCN(C)C(C2)[C@@]1(C)O | 1.48
10 | CCCCC(=O)Oc1ccc2c(c1)[C@@]1(c3ccccc3)CCN(C)C(C2)[C@H]1C | 2.78
11 | CC[C@@]12CCN(CCc3ccccc3)C(Cc3ccc(O)cc31)C2 (mixture of isomers) | 3.66
12 | CC(=O)Oc1ccc2c(c1)[C@@]1(C)CCN(CCc3ccccc3)C(C2)[C@@H]1C (mixture of isomers) | 3.61
13 | CCC[C@@]12CCN(C)C(Cc3ccc(O)cc31)[C@H]2C (mixture of isomers) | 3.45
14 | C[C@@H]1C2CCN(CCc3ccccc3)C1Cc1ccc(O)cc12 (mixture of isomers) | 3.21
15 | CC[C@@H]1C2Cc3ccc(O)cc3[C@@]1(C)CCN2C (mixture of isomers) | 3.07
16 | C[C@@]12CCN(CCc3ccccc3)C(Cc3ccc(O)cc31)[C@@H]2O (mixture of isomers) | 2.99
17 | CCC[C@@]12CCN(CCc3ccccc3)C(Cc3ccc(O)cc31)[C@@H]2C (mixture of isomers) | 2.92
18 | CC[C@@]12CCN(C)C(Cc3ccc(OC(C)=O)cc31)[C@]2(C)OC(C)=O (mixture of isomers) | 2.82
19 | CC[C@@]12CCN(C)C(Cc3ccc(O)cc31)[C@]2(C)OC(C)=O (mixture of isomers) | 2.78
20 | CC(=O)Oc1ccc2c(c1)[C@@]1(C)CCN(C)C(C2)[C@@H]1C (mixture of isomers) | 2.72
21 | CC(=O)Oc1ccc2c(c1)[C@@]1(C)CCN(C)C(C2)[C@]1(C)OC(C)=O (mixture of isomers) | 2.66
22 | CC[C@H]1C2Cc3ccc(O)cc3[C@@]1(CC)CCN2CCc1ccccc1 (mixture of isomers) | 2.61

Row | Compound | log(1/C)
23 | CC[C@@]12CCN(C)C(Cc3ccc(O)cc31)[C@@]2(C)O (mixture of isomers) | 2.61
24 | C[C@H]1C2Cc3ccc(OC(=O)c4cccnc4)cc3[C@@]1(C)CCN2CC1CC1 (mixture of isomers) | 2.59
25 | CC[C@@]12CCN(C)C(Cc3ccc(OC(C)=O)cc31)[C@@H]2OC(C)=O (mixture of isomers) | 2.53
26 | CC(=O)Oc1ccc2c(c1)[C@@]1(C)CCN(CCC(=O)c3ccccc3)C(C2)[C@@H]1C (mixture of isomers) | 2.49
27 | CCC[C@@]12CCN(C)C(Cc3ccc(O)cc31)C2 (mixture of isomers) | 2.43
28 | CC[C@H]1C2Cc3ccc(OC(C)=O)cc3[C@@]1(CC)CCN2C (mixture of isomers) | 2.36
29 | CN1CC[C@]2(C)c3cc(O)ccc3CC1[C@@]2(C)O (mixture of isomers) | 2.15
30 | CC[C@@]12CCN(C)C(Cc3ccc(O)cc31)[C@@H]2C (mixture of isomers) | 2.06
31 | C[C@]1(O)C2Cc3ccc(O)cc3[C@@]1(C)CCN2CCc1ccccc1 (mixture of isomers) | 2.05
32 | CC(=O)Oc1ccc2c(c1)[C@@]1(C)CCN(C)C(C2)C1 (mixture of isomers) | 1.98
33 | C[C@H]1C2Cc3ccccc3[C@@]1(C)CCN2CCC(=O)c1ccccc1 (mixture of isomers) | 1.93
34 | CN1CC[C@]2(C)c3cc(O)ccc3CC1[C@]2(C)O (mixture of isomers) | 1.89
35 | CC[C@@]1(O)C2Cc3ccc(OC)cc3[C@@]1(C)CCN2C (mixture of isomers) | 1.87
36 | C[C@@H]1C2Cc3ccccc3[C@@]1(C)CCN2C (mixture of isomers) | 1.82
37 | CC[C@@H]1C2Cc3ccccc3[C@@]1(CC)CCN2C (mixture of isomers) | 1.8
38 | CCC[C@@]12CCN(C)C(Cc3ccccc31)[C@H]2C (mixture of isomers) | 1.76
39 | CC[C@@]12CCN(C)C(Cc3ccc(O)cc31)[C@H]2O (mixture of isomers) | 1.67
40 | COc1ccc2c(c1)[C@@]1(C)CCN(C)C(C2)[C@]1(C)O (mixture of isomers) | 1.65
41 | COc1ccc2c(c1)[C@@]1(C)CCN(C)C(C2)C1 (mixture of isomers) | 1.64
42 | COc1ccc2c(c1)[C@@]1(C)CCN(CCc3ccccc3)C(C2)[C@@H]1O (mixture of isomers) | 1.58
43 | CC(=O)Oc1ccc2c(c1)[C@H]1CCN(C)C(C2)C1 (mixture of isomers) | 1.57
44 | CC[C@@]12CCN(C)C(Cc3ccc(OC)cc31)[C@@H]2OC(C)=O (mixture of isomers) | 1.48

Row | Compound | log(1/C)
45 | CCC[C@@]12CCN(C)C(Cc3ccccc31)[C@@H]2C (mixture of isomers) | 1.42
46 | CC(=O)O[C@H]1C2Cc3ccccc3[C@@]1(C)CCN2C (mixture of isomers) | 1.37
47 | CN1CC[C@@]2(C)CC1Cc1ccccc12 (mixture of isomers) | 1.33
48 | c1ccc2c(c1)CC1C[C@@H]2CCN1 (mixture of isomers) | 1.31
49 | CN1CC[C@H]2CC1Cc1ccccc12 (mixture of isomers) | 1.3
50 | C[C@H]1C2Cc3ccccc3[C@@]1(C)CCN2C (mixture of isomers) | 1.27
51 | C[C@@]12CCN(CCc3ccccc3)C(Cc3ccccc31)C2 (mixture of isomers) | 1.26
52 | CN1CC[C@]2(C)c3ccccc3CC1[C@]2(C)O (mixture of isomers) | 1.16
53 | COc1ccc2c(c1)[C@@]1(C)CCN(C)C(C2)[C@H]1O (mixture of isomers) | 1.14
54 | CC[C@@]12CCN(C)C(Cc3ccc(OC)cc31)[C@@H]2O (mixture of isomers) | 0.99
55 | CN1CC[C@]2(C)c3ccccc3CC1[C@@H]2O (mixture of isomers) | 0.97
56 | CN1CC[C@]2(C)c3cc(O)ccc3CC1[C@@H]2O (mixture of isomers) | 0.9
57 | C[C@@]12CCNC(Cc3ccc(O)cc31)[C@H]2O (mixture of isomers) | 0.88
58 | CN1CC[C@]2(C)c3ccccc3CC1[C@@]2(C)O (mixture of isomers) | 0.68
59 | C[C@H]1C2Cc3ccc(O)cc3[C@@]1(C)CCN2CCc1cccs1 (mixture of isomers) | 4.04
60 | CCC[C@@H]1C2Cc3ccc(O)cc3[C@@]1(CCC)CCN2C (mixture of isomers) | 2.88
61 | CCCC[C@@]12CCN(C)C(Cc3ccc(O)cc31)C2 (mixture of isomers) | 2.17
62 | CCC(=O)Oc1ccc2c(c1)[C@@]1(C)CCN(C)C(C2)C1 (mixture of isomers) | 1.98
63 | CCCCC[C@@]12CCN(C)C(Cc3ccc(O)cc31)C2 (mixture of isomers) | 1.96
64 | CCCC(=O)Oc1ccc2c(c1)[C@@]1(C)CCN(C)C(C2)C1 (mixture of isomers) | 1.92
65 | CC(=O)O[C@@]12CCN(C)C(Cc3ccccc31)C2 (mixture of isomers) | 1.64
66 | CN1CC[C@@H]2c3cc(O)ccc3CC1[C@H]2CO (mixture of isomers) | 1.62

Row | Compound | log(1/C)
67 | CC[C@H]1C2Cc3ccc(OC(=O)c4cccnc4)cc3[C@@]1(CC)CCN2C (mixture of isomers) | 1.54
68 | CCCCCC[C@@]12CCN(C)C(Cc3ccc(O)cc31)[C@H]2CO (mixture of isomers) | 1.53
69 | CCC(=O)O[C@@]12CCN(C)C(Cc3ccccc31)C2 (mixture of isomers) | 1.43
70 | C[C@H]1C2Cc3ccc(F)cc3[C@@]1(C)CCN2C (mixture of isomers) | 1.08
71 | C[C@H]1C2Cc3ccc(Cl)cc3[C@@]1(C)CCN2C (mixture of isomers) | 0.83
72 | C[C@H]1C2Cc3ccccc3[C@@]1(O)CCN2C (mixture of isomers) | 0.75
73 | C[C@H]1[C@H]2Cc3ccc(O)cc3[C@@]1(C)CCN2CC1CC1 (racemic) | 1.37
74 | C[C@H]1C2Cc3ccc(O)cc3[C@@]1(C)CCN2CCc1ccccc1 (stereo in doubt; 2) | 3.83
75 | CC[C@@H]1C2Cc3ccc(O)cc3[C@@]1(CC)CCN2C (stereo in doubt; 6) | 3.51
76 | C[C@@H]1C2Cc3ccc(O)cc3[C@@]1(c1ccccc1)CCN2C (stereo in doubt; 8) | 3.26
77 | C[C@@H]1C2Cc3ccc(O)cc3[C@@]1(C)CCN2C (stereo in doubt; 9) | 3.22
78 | CC[C@@]12CCN(C)C(Cc3ccc(O)cc31)C2 (stereo in doubt; 20) | 2.62
79 | CC[C@H]1C2Cc3ccc(O)cc3[C@@]1(C)CCN2C (stereo in doubt; 21) | 2.62
80 | CCC[C@@]12CCN(C)C(Cc3ccc(O)cc31)[C@@H]2C (stereo in doubt; 25) | 2.57
81 | CC[C@H]1C2Cc3ccc(O)cc3[C@@]1(CC)CCN2C (stereo in doubt; 30) | 2.35
82 | CN1CC[C@@]2(C)CC1Cc1ccc(O)cc12 (stereo in doubt; 31) | 2.16
83 | CC[C@H]1C2Cc3ccc(OC)cc3[C@@]1(CC)CCN2C (stereo in doubt; 42) | 1.81
84 | CN1CC[C@@]2(c3ccccc3)CC1Cc1ccccc12 (stereo in doubt; 44) | 1.77
85 | CN1CC[C@H]2CC1Cc1ccc(O)cc12 (stereo in doubt; 46) | 1.72
86 | C=CC#CCN1CC[C@]2(CC)c3cc(O)ccc3CC1[C@@H]2CC (stereo in doubt; 72) | 3.7
87 | C[C@H]1C2Cc3ccc(O)cc3[C@@]1(C)CCN2CCc1ccccc1 (stereo in doubt; 87) | 2.05
